From patent US20080262066A1, “Azole Derivatives as Cannabinoid CB1 Receptor Antagonists” (Green Cross Corporation, priority 2007, published 2008)

These compounds were tested against T1, rat CB-1 receptor (Rattus norvegicus, UniProt P20272) (assay: rat CB-1 receptor binding protocol with [3H]CP-55940 on SD rat brain tissue). Conditions: [3H]CP-55940 displacement, SD rat brain homogenate, 30° C., 60 min.
T1 construct: The tissue obtained from the brain of SD rats was homogenized; from tissue; host or cells: SD rat brain (membrane pellet of homogenate)
T1 sequence (P20272 whole entry): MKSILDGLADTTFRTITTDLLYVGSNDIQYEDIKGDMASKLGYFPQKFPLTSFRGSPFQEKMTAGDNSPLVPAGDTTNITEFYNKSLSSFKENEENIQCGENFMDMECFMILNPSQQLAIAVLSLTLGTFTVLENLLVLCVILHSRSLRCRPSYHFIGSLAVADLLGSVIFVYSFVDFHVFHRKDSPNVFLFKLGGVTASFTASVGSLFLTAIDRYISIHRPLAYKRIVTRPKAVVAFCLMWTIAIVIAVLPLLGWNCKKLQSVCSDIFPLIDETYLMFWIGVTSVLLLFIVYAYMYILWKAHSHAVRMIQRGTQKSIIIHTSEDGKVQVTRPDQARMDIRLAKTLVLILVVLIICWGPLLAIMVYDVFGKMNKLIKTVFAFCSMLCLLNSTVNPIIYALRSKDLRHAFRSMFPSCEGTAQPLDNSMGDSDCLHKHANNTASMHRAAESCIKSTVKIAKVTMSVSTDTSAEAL
Experimental: The tissue obtained from the brain of SD rats was homogenized with a Dounce homogenate system in TME (50 mM Tris, 3 mM MgCl2 and 1 mM EDTA, pH 7.4) at 4° C., and the homogenate was centrifuged at 48,000 g for 30 min. at 4° C. The pellet was resuspended in 5 ml of TME and the suspension was divided into aliquots and stored at −70° C. until its use in the following assay.
The tissue concentrations were determined by Bradford protein analysis, and 148 μl of brain tissue of the required concentration was added to the plate. The plate was covered and placed in a 30° C. incubator for 60 min, and then transformed on GF/B filtermat pretreated in polyethylenimine (PEI) using a cell harvester. Each filter was washed five times and dried at 60° C. for 1 hr. Then, the degree of radioactivity retained by the filter was measured using Wallac Microbeta™ (PerkinElmer Life Sciences, Inc., Massachusetts, U.S.A.) and the activity of the compound for inhibiting CB1 receptor was determined therefrom.
With `Cc1c(C(=O)NC(=O)NCC2CCCCC2)nn(-c2ccc(Cl)cc2Cl)c1-c1ccc(Cl)cc1` [Example 18, 5-(4-Chlorophenyl)-N-(cyclohexylmethylcarbamoyl)-1-(2,4-dichlorophenyl)-4-methyl-1H-pyrazole-3-carboxamide] the “IC50 (binding affinity for CB1 receptor)” value was “insoluble”.
For `Cc1c(C(=O)NC(=O)NC(C)(C)C)nn(-c2ccc(Cl)cc2Cl)c1-c1ccc(Cl)cc1` [Example 20, N-(tert-butylcarbamoyl)-5-(4-chlorophenyl)-1-(2,4-dichlorophenyl)-4-methyl-1H-pyrazole-3-carboxamide], the “IC50 (binding affinity for CB1 receptor)” value was “insoluble”.

Same assay, conditions: [3H]CP-55940 displacement, SD rat brain homogenate, 30° C., 60 min; read-out: IC50 (binding affinity for CB1 receptor)
`CCC(CC)C(=O)NC(=O)c1nn(-c2ccc(Cl)cc2Cl)c(-c2ccc(Cl)cc2)c1C` [Example 1, 5-(4-Chlorophenyl)-1-(2,4-dichlorophenyl)-N-(2-ethylbutanoyl)-4-methyl-1H-pyrazole-3-carboxamide] was tested, and the IC50 was 24.8 nM.
Work on `Cc1c(C(=O)NC(=O)C2CC2)nn(-c2ccc(Cl)cc2Cl)c1-c1ccc(Cl)cc1` [Example 2, 5-(4-Chlorophenyl)-N-(cyclopropanecarbonyl)-1-(2,4-dichlorophenyl)-4-methyl-1H-pyrazole-3-carboxamide] yielded an IC50 of 124 nM.
`Cc1c(C(=O)NC(=O)C2CCC2)nn(-c2ccc(Cl)cc2Cl)c1-c1ccc(Cl)cc1` [Example 3, 5-(4-Chlorophenyl)-N-(cyclobutanecarbonyl)-1-(2,4-dichlorophenyl)-4-methyl-1H-pyrazole-3-carboxamide] gave an IC50 of 127 nM.
With `Cc1c(C(=O)NC(=O)C2CCCC2)nn(-c2ccc(Cl)cc2Cl)c1-c1ccc(Cl)cc1` [Example 4, 5-(4-Chlorophenyl)-N-(cyclopentanecarbonyl)-1-(2,4-dichlorophenyl)-4-methyl-1H-pyrazole-3-carboxamide] the IC50 was 67.2 nM.
For `Cc1c(C(=O)NC(=O)C2CCCCC2)nn(-c2ccc(Cl)cc2Cl)c1-c1ccc(Cl)cc1` [Example 5, 5-(4-Chlorophenyl)-N-(cyclohexanecarbonyl)-1-(2,4-dichlorophenyl)-4-methyl-1H-pyrazole-3-carboxamide], the IC50 was 30.4 nM.
In the case of `CC(=O)NC(=O)c1nn(-c2ccc(Cl)cc2Cl)c(-c2ccc(Cl)cc2)c1C` [Example 6, N-Acetyl-5-(4-chlorophenyl)-1-(2,4-dichlorophenyl)-4-methyl-1H-pyrazole-3-carboxamide], the IC50 is reported as 383 nM.
With `CCCC(=O)NC(=O)c1nn(-c2ccc(Cl)cc2Cl)c(-c2ccc(Cl)cc2)c1C` [Example 7, N-Butyryl-5-(4-chlorophenyl)-1-(2,4-dichlorophenyl)-4-methyl-1H-pyrazole-3-carboxamide] the IC50 was 43.7 nM.
`CCCCCC(=O)NC(=O)c1nn(-c2ccc(Cl)cc2Cl)c(-c2ccc(Cl)cc2)c1C` [Example 8, 5-(4-Chlorophenyl)-1-(2,4-dichlorophenyl)-N-hexanoyl-4-methyl-1H-pyrazole-3-carboxamide] gave an IC50 of 33.5 nM.
In the case of `Cc1c(C(=O)NC(=O)C(C)C)nn(-c2ccc(Cl)cc2Cl)c1-c1ccc(Cl)cc1` [Example 9, 5-(4-Chlorophenyl)-1-(2,4-dichlorophenyl)-N-isobutyryl-4-methyl-1H-pyrazole-3-carboxamide], the IC50 is reported as 161 nM.
Compound `Cc1c(C(=O)NC(=O)C(C)(C)C)nn(-c2ccc(Cl)cc2Cl)c1-c1ccc(Cl)cc1` [Example 10, 5-(4-Chlorophenyl)-1-(2,4-dichlorophenyl)-4-methyl-N-pivaloyl-1H-pyrazole-3-carboxamide] has an IC50 of 32.7 nM.
`CCC(C)(C)C(=O)NC(=O)c1nn(-c2ccc(Cl)cc2Cl)c(-c2ccc(Cl)cc2)c1C` [Example 11, 5-(4-Chlorophenyl)-1-(2,4-dichlorophenyl)-N-(2,2-dimethylbutanoyl)-4-methyl-1H-pyrazole-3-carboxamide] showed an IC50 of 21.2 nM.
Work on `Cc1c(C(=O)NC(=O)CC(C)(C)C)nn(-c2ccc(Cl)cc2Cl)c1-c1ccc(Cl)cc1` [Example 12, 5-(4-Chlorophenyl)-1-(2,4-dichlorophenyl)-N-(3,3-dimethylbutanoyl)-4-methyl-1H-pyrazole-3-carboxamide] yielded an IC50 of 53.4 nM.
`CCCC(CCC)C(=O)NC(=O)c1nn(-c2ccc(Cl)cc2Cl)c(-c2ccc(Cl)cc2)c1C` [Example 13, 5-(4-Chlorophenyl)-1-(2,4-dichlorophenyl)-4-methyl-N-(2-propylpentanoyl)-1H-pyrazole-3-carboxamide] showed an IC50 of 26.9 nM.
`CCCCC(CC)C(=O)NC(=O)c1nn(-c2ccc(Cl)cc2Cl)c(-c2ccc(Cl)cc2)c1C` (centres unmarked) [Example 14, 5-(4-Chlorophenyl)-1-(2,4-dichlorophenyl)-N-(2-ethylhexanoyl)-4-methyl-1H-pyrazole-3-carboxamide] gave an IC50 of 43.1 nM.
`CCCCCCNC(=O)NC(=O)c1nn(-c2ccc(Cl)cc2Cl)c(-c2ccc(Cl)cc2)c1C` [Example 15, 5-(4-Chlorophenyl)-1-(2,4-dichlorophenyl)-N-(hexylcarbamoyl)-4-methyl-1H-pyrazole-3-carboxamide] showed an IC50 of 138 nM.
Work on `Cc1c(C(=O)NC(=O)NC2CCCCC2)nn(-c2ccc(Cl)cc2Cl)c1-c1ccc(Cl)cc1` [Example 16, 5-(4-Chlorophenyl)-N-(cyclohexylcarbamoyl)-1-(2,4-dichlorophenyl)-4-methyl-1H-pyrazole-3-carboxamide] yielded an IC50 of 390 nM.
`Cc1c(C(=O)NC(=O)NC2CCCCCC2)nn(-c2ccc(Cl)cc2Cl)c1-c1ccc(Cl)cc1` [Example 17, 5-(4-Chlorophenyl)-N-(cycloheptylcarbamoyl)-1-(2,4-dichlorophenyl)-4-methyl-1H-pyrazole-3-carboxamide] showed an IC50 of 750 nM.
In the case of `Cc1c(C(=O)NC(=O)NC(C)C)nn(-c2ccc(Cl)cc2Cl)c1-c1ccc(Cl)cc1` [Example 19, 5-(4-Chlorophenyl)-1-(2,4-dichlorophenyl)-N-(isopropylcarbamoyl)-4-methyl-1H-pyrazole-3-carboxamide], the IC50 is reported as 253 nM.
With `Cc1c(C(=O)NC(=O)NCc2ccccc2)nn(-c2ccc(Cl)cc2Cl)c1-c1ccc(Cl)cc1` [Example 22, N-(Benzylcarbamoyl)-5-(4-chlorophenyl)-1-(2,4-dichlorophenyl)-4-methyl-1H-pyrazole-3-carboxamide] the IC50 was 146 nM.
Work on `Cc1c(C(=O)NC(=O)OCc2ccccc2)nn(-c2ccc(Cl)cc2Cl)c1-c1ccc(Cl)cc1` [Example 23, Benzyl 5-(4-chlorophenyl)-1-(2,4-dichlorophenyl)-4-methyl-1H-pyrazole-3-carbonylcarbamate] yielded an IC50 of 17.8 nM.
`CCCCOC(=O)NC(=O)c1nn(-c2ccc(Cl)cc2Cl)c(-c2ccc(Cl)cc2)c1C` [Example 24, Butyl 5-(4-chlorophenyl)-1-(2,4-dichlorophenyl)-4-methyl-1H-pyrazole-3-carbonylcarbamate] gave an IC50 of 99.7 nM.
For `Cc1c(C(=O)NC(=O)OC(C)(C)C)nn(-c2ccc(Cl)cc2Cl)c1-c1ccc(Cl)cc1` [Example 25, tert-Butyl 5-(4-chlorophenyl)-1-(2,4-dichlorophenyl)-4-methyl-1H-pyrazole-3-carbonylcarbamate], the IC50 was 82.5 nM.
With `Cc1c(C(=O)NC(=O)OCC(C)(C)C)nn(-c2ccc(Cl)cc2Cl)c1-c1ccc(Cl)cc1` [Example 26, Neopentyl 5-(4-chlorophenyl)-1-(2,4-dichlorophenyl)-4-methyl-1H-pyrazole-3-carbonylcarbamate] the IC50 was 363 nM.
Compound `CCC(CC)C(=O)NC(=O)c1nc(-c2ccc(Cl)cc2Cl)n(-c2ccc(Cl)cc2)c1C` [Example 27, 1-(4-Chlorophenyl)-2-(2,4-dichlorophenyl)-N-(2-ethylbutanoyl)-5-methyl-1H-imidazole-4-carboxamide] has an IC50 of 20 nM.
In the case of `Cc1c(C(=O)NC(=O)C2CCCCC2)nc(-c2ccc(Cl)cc2Cl)n1-c1ccc(Cl)cc1` [Example 28, 1-(4-Chlorophenyl)-N-(cyclohexanecarbonyl)-2-(2,4-dichlorophenyl)-5-methyl-1H-imidazole-4-carboxamide], the IC50 is reported as 88 nM.
With `Cc1c(C(=O)NC(=O)C(C)(C)C)nc(-c2ccc(Cl)cc2Cl)n1-c1ccc(Cl)cc1` [Example 29, 1-(4-Chlorophenyl)-2-(2,4-dichlorophenyl)-5-methyl-N-pivaloyl-1H-imidazole-4-carboxamide] the IC50 was 40 nM.
With `CCC(C)(C)C(=O)NC(=O)c1nc(-c2ccc(Cl)cc2Cl)n(-c2ccc(Cl)cc2)c1C` [Example 30, 1-(4-Chlorophenyl)-2-(2,4-dichlorophenyl)-N-(2,2-dimethylbutanoyl)-5-methyl-1H-imidazole-4-carboxamide] the IC50 was 39.9 nM.
For `CCCC(CCC)C(=O)NC(=O)c1nc(-c2ccc(Cl)cc2Cl)n(-c2ccc(Cl)cc2)c1C` [Example 31, 1-(4-Chlorophenyl)-2-(2,4-dichlorophenyl)-5-methyl-N-(2-propylpentanoyl)-1H-imidazole-4-carboxamide], the IC50 was 75.4 nM.
`CCCCC(CC)C(=O)NC(=O)c1nc(-c2ccc(Cl)cc2Cl)n(-c2ccc(Cl)cc2)c1C` (centres unmarked) [Example 32, 1-(4-Chlorophenyl)-2-(2,4-dichlorophenyl)-N-(2-ethylhexanoyl)-5-methyl-1H-imidazole-4-carboxamide] was tested, and the IC50 was 46.6 nM.
For `CCCCCCCC(=O)NCNC(=O)c1nn(-c2ccc(Cl)cc2Cl)c(-c2ccc(Cl)cc2)c1C` [Example 33, 5-(4-Chlorophenyl)-1-(2,4-dichlorophenyl)-4-methyl-N-(octanamidomethyl)-1H-pyrazole-3-carboxamide], the IC50 was 1180 nM.
In the case of `Cc1c(C(=O)NCNC(=O)C2CCC2)nn(-c2ccc(Cl)cc2Cl)c1-c1ccc(Cl)cc1` [Example 34, 5-(4-Chlorophenyl)-N-(cyclobutanecarboxamidomethyl)-1-(2,4-dichlorophenyl)-4-methyl-1H-pyrazole-3-carboxamide], the IC50 is reported as 150 nM.
Compound `Cc1c(C(=O)NCNC(=O)C2CCCCC2)nn(-c2ccc(Cl)cc2Cl)c1-c1ccc(Cl)cc1` [Example 35, 5-(4-Chlorophenyl)-N-(cyclohexanecarboxamidomethyl)-1-(2,4-dichlorophenyl)-4-methyl-1H-pyrazole-3-carboxamide] has an IC50 of 49.2 nM.

Same assay, conditions: [3H]CP-55940 displacement, SD rat brain homogenate; read-out: IC50 (binding affinity for CB1 receptor)
`Cc1c(C(=O)NC(=O)Nc2ccccc2)nn(-c2ccc(Cl)cc2Cl)c1-c1ccc(Cl)cc1` [Example 21, 5-(4-Chlorophenyl)-1-(2,4-dichlorophenyl)-4-methyl-N-(phenylcarbamoyl)-1H-pyrazole-3-carboxamide] was tested, and the IC50 was > 10000 nM.
